Activity calls are given as the source filed them.
Experiments:
[1] = target: Potassium voltage-gated channel subfamily KQT member 2 (Rattus norvegicus, UniProt O88943); assay: rat KCNQ2 current potentiators – automated patch clamp, KCNQ2-CHO cells, SAR follow-up (AID 493113); type: functional
[2] = NIH3T3 cell viability loss – ATP luminescence, mouse fibroblasts, counter-screen, dose response (AID 2010); type: functional, cell-based;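 also: cells exposed to compound for about 90 hours before reading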
[3] = T. cruzi infection blockers in NIH3T3 cells – beta-gal luminescence, NIH3T3 host cells, confirmation (AID 2630); type: functional, cell-based; settings: Mus musculus
[4] = Luminescence Cell-Based Secondary HTS screen to identify cytotoxic compounds of NIH3T3 cells. [Related pubchem assays: 1885, 1968 ]; type: functional
[5] = Trypanosoma cruzi growth suppression in host cells – NIH3T3 host cells, beta-gal luminescence, confirmation (AID 2044); type: functional, cell-based;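 also: intracellular parasites grown in NIH/3T3 mouse fibroblasts as host cells; luminescent beta-galactosidase reporter signal from transgenic T. cruzi replicating inside host cells; inhibitors lower the luminescence signal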
[6] = Luminescence Cell-Based/Microorganism Confirmation at Dose of Inhibitors of Trypanosoma cruzi Infection. [Related pubchem assays: 1885, 1968 ]; type: functional
[7] = Luminescence Cell-Based Dose Retest to Confirm Inhibitors of Cancer Stem Cells. [Related pubchem assays (depositor defined):AID2717, AID2721]; type: functional; settings: Homo sapiens
[8] = viability loss of HMLE_sh_eGFP cells – cell-based, luminescence, counter-screen for HMLE_sh_ECad selective toxicity project, dose response (AID 463074); type: functional, Homo sapiens;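 also: HMLE human mammary epithelial cells expressing control shRNA against eGFP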
[9] = non-specific 3'UTR reporter inhibition in Clone20-Shn3RL – cell-based, Renilla luciferase, cherry-picked, counter-screen for Shn3 inhibitor project, dose response (AID 624133); type: functional
[10] = viability of HCT116 lacking mutant beta-catenin – cell-based, human colon tumor, dose response (AID 1045); type: functional;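 also: HCT116 colon tumor cells with beta catenin knocked out; cells exposed to compound for 60 hours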
[11] = target: T1, Delta-type opioid receptor (Homo sapiens, UniProt P41143); assay: HTS Image-Based Screen for Agonists of the DOR Receptor. [Related pubchem assays (depositor defined):AID1777, AID1786, AID2133]; type: functional
[12] = viability of PTEN-deleted HCT116 cells – cell-based, HCT116 PTEN knockout, dose response (AID 1047); type: functional;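 also: HCT116 colon tumor cells with PTEN knocked out; cells exposed to compound for 60 hours before readout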
[13] = Vero E6 cell cytotoxicity, dose response, cytotoxicity control for non-replicating M. tuberculosis project, secondary assay (AID 492998); type: functional, VeroE6; settings: Vero C1008
[14] = target: T1, Delta-type opioid receptor; assay: HTS Image-Based Screen for Antagonists of the DOR Receptor. [Related pubchem assays (depositor defined):AID1777, AID1785, AID1786, AID2133]; type: functional
[15] = target: T2, Kappa-type opioid receptor (Homo sapiens, UniProt P41145); type: functional
[16] = target: Beta-galactosidase (Escherichia coli, UniProt Q8VNN2); type: functional
[17] = tested on: CHO; assay: CHO cell viability loss, potency – luminescence, cytotoxicity control for TLR9-MyD88 binding inhibitor project, dose response (AID 588339); type: functional, cell-based, hamster; settings: Cricetulus griseus;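 also: CHO cells stably coexpressing TLR9 and MyD88 fusions from primary screen; compound exposure lasted 48 hours before viability readout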
[18] = HepG2 cell cytotoxicity, dose response, cytotoxicity control for non-replicating M. tuberculosis project (AID 489018); type: functional; settings: Mycobacterium tuberculosis
[19] = target: T3, Fatty acid synthase (Homo sapiens, UniProt P49327); assay: inhibition of human FAS-TE enzyme activity – biochemical, kinetic fluorescence intensity, dose response (AID 624326); type: functional;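 also: rate of fluorescence rise from hydrolysis of a fluorogenic O-methyl fluorescein ester substrate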
[20] = tested on: BJ; assay: growth inhibition of engineered Ras-driven BJ cells – cell-based, alamar blue fluorescence, cherrypicked samples, dose response (AID 2631); type: functional; settings: Homo sapiens;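 also: confirmatory dose-response assay in RAS-dependent BJ fibroblasts engineered with TERT, LT and ST, with cytotoxicity read by fluorescence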
[21] = target: Bifunctional protein GlmU (Mycobacterium tuberculosis, UniProt P9WMN3); assay: Inhibitors of Mycobacterial Glucosamine-1-phosphate acetyl transferase (GlmU). Secondary screen.; set-up: species or system Mycobacterium tuberculosis H37Rv
[22] = target: T4, Replicative DNA helicase DnaB (Mycobacterium tuberculosis, UniProt P9WMR3); assay: DnaB intein splicing inhibitors, dose response, biochemical, cell-free fluorescence (AID 449749); type: functional
T4 sequence (P9WMR3 whole entry): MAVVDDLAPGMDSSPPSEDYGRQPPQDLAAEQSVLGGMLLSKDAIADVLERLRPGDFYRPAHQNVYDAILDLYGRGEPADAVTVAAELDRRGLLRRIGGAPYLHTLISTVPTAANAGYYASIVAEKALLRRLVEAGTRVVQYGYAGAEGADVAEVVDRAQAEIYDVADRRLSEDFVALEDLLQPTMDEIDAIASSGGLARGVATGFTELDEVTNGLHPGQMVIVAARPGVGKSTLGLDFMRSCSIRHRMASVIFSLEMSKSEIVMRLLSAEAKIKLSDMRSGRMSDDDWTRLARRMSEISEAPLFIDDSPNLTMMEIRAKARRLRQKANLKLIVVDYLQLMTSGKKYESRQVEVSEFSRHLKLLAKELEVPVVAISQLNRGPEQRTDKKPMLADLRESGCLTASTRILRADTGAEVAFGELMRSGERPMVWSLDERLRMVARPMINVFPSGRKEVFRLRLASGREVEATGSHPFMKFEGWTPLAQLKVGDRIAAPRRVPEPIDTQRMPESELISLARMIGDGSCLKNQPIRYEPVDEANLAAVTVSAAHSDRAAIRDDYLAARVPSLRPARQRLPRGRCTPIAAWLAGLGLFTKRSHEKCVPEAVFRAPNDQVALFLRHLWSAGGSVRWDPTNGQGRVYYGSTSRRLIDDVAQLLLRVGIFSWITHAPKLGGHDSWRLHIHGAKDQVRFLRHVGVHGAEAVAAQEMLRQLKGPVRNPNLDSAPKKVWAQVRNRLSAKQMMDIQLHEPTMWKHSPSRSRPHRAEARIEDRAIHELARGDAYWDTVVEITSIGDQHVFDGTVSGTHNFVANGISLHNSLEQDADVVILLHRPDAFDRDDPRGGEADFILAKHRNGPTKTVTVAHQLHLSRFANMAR

[23] = target: Beta Lactamase (Pseudomonas aeruginosa, UniProt Q932Y6); assay: BLA reporter interference, concentration series – BLA reporter cells, FRET fluorescence, artefact control for TLR9-MyD88 binding inhibitor project, dose response (AID 588341); type: cell-based;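 also: cell based assay in CHO-K1 cells stably expressing beta-lactamase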
[24] = cells; type: functional
[25] = target: T3, Fatty acid synthase; assay: inhibition of human FAS-TE enzyme activity – biochemical, endpoint fluorescence intensity, uHTS hits, dose response (AID 624327); type: functional;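 also: fluorescence from hydrolysis of an O-methyl fluorescein acyl ester substrate by the enzyme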
[26] = target: T5, Protein RecA (Mycobacterium tuberculosis, UniProt P9WHJ3); assay: Fluorescence Cell-Free Homogeneous Dose Retest to Identify Inhibitors of RecA-Intein Splicing Activity. [Related pubchem assays (depositor defined):AID2097, AID2223, AID489010, AID492950]; type: functional
T5 sequence (P9WHJ3 whole entry): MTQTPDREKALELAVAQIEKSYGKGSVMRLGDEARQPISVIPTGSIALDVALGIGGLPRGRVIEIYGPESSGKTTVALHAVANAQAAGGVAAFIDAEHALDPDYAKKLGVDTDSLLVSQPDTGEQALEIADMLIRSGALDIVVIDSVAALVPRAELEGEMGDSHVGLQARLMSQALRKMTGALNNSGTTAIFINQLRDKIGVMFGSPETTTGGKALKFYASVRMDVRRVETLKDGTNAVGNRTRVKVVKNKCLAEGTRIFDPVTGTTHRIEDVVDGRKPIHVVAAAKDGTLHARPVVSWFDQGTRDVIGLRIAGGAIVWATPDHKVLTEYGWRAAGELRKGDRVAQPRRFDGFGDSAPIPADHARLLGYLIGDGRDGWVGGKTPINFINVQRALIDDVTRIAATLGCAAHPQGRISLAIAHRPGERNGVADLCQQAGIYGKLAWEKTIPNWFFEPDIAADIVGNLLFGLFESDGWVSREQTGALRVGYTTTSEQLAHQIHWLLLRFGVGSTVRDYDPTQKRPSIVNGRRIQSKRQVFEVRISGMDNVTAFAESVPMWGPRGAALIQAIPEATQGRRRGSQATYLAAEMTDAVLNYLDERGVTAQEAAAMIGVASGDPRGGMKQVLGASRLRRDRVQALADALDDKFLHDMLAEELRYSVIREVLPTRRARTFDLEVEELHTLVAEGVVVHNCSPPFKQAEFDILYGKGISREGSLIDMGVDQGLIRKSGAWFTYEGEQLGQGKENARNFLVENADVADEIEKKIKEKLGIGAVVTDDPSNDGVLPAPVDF

[27] = reduction of Shn3 3'UTR-driven luciferase in osteoblasts – cell-based, Clone20 osteoblasts, firefly luciferase, cherry-picked, dose response (AID 624132); type: functional;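 also: firefly luciferase luminescence from reporter carrying the Shn3 3'UTR in osteoblasts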
[28] = loss of viability in HepG2 cells – cell-based, CellTiter-Glo, cherry-picked, cytotoxicity control for Shn3 inhibitor project, dose response (AID 624134); type: functional
[29] = target: T2, Kappa-type opioid receptor; type: functional; remark: listed apart in the source
[30] = THP-1 cell cytotoxicity, dose response, cytotoxicity control for non-replicating M. tuberculosis project (AID 489025); type: functional
[31] = target: Mu-type opioid receptor (Homo sapiens, UniProt P35372); assay: HTS Image-Based Screen for Agonists of the MOR Receptor. [Related pubchem assays (depositor defined):AID1777, AID1785, AID1786, AID2133]; type: functional;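 also: imaging of beta-arrestin GFP recruitment into spots after receptor activation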
[32] = target: T6, RNA-binding protein pos-1 (Caenorhabditis elegans, UniProt G5EF15); assay: disruptors of C. elegans POS-1 RNA interaction – biochemical, fluorescence polarization, dose response (AID 1964);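 also: purified POS-1 fused to maltose binding protein made in E. coli; potency of compounds blocking POS-1 binding to fluorescent RNA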
T6 sequence (G5EF15 whole entry): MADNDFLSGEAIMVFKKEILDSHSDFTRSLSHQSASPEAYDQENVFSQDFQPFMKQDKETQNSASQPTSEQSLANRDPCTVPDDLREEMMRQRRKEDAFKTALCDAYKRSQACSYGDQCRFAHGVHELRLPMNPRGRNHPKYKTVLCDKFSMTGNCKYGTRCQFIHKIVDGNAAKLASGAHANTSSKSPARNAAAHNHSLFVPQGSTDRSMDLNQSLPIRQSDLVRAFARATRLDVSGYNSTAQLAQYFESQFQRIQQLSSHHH

[33] = tested on: Escherichia coli; assay: microbe, parasite or virus in culture
[34] = tested on: Escherichia coli; assay: microbe, parasite or virus in culture; remark: listed apart in the source
[35] = target: T7, Zinc finger protein mex-5 (Caenorhabditis elegans, UniProt Q9XUB2); assay: potency of MEX-5 RNA-binding blockers – biochemical, C. elegans, fluorescence polarization, dose response (AID 1960)
T7 sequence (Q9XUB2 whole entry): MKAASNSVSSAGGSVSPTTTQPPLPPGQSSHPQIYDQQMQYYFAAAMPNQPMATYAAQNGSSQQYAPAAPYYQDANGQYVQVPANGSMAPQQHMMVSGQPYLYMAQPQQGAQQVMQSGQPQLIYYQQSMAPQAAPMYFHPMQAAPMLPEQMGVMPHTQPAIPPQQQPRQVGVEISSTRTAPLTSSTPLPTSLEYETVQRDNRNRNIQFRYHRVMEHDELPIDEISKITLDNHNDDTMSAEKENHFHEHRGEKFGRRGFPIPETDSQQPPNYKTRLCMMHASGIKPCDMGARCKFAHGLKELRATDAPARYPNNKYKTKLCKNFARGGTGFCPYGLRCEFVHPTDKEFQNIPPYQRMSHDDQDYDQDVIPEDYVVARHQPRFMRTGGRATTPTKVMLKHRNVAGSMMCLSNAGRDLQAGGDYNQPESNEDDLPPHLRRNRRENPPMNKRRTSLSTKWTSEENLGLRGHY

[36] = tested on: HeLa; assay: viability loss in HeLa cells – cell-based, 24 h, cherry-picked samples, cytotoxicity control, dose response (AID 504726); type: functional; settings: Homo sapiens
[37] = target: Cytochrome P450 2C19 (Homo sapiens, UniProt P33261); assay: Cytochrome panel assay with activity outcomes. Panel member name: p450-cyp2c19 Compounds with AC50 equal or less than 10 uM are considered active; type: functional
[38] = target: Cytochrome P450 3A4 (Homo sapiens, UniProt P08684);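 also: CYP3A4 tested as one member of a cytochrome P450 panel screen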
[39] = target: T8, Cytochrome P450 1A2 (Homo sapiens, UniProt P05177);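 also: PubChem cytochrome P450 panel assay, CYP1A2 panel member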
T8 sequence (P05177 whole entry): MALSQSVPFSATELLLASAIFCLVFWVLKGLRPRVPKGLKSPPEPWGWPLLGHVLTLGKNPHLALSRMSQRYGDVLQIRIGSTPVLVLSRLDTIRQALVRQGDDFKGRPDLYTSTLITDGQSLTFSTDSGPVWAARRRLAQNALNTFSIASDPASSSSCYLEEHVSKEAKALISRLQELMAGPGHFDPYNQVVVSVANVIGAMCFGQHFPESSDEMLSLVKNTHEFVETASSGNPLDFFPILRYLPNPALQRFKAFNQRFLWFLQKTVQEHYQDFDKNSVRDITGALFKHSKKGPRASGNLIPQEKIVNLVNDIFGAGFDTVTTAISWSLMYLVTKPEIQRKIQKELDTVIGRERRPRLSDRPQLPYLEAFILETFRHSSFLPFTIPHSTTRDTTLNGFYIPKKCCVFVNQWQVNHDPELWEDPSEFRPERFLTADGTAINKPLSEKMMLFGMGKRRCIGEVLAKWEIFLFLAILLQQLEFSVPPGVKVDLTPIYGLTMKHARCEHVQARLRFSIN

T1 sequence (P41143 whole entry): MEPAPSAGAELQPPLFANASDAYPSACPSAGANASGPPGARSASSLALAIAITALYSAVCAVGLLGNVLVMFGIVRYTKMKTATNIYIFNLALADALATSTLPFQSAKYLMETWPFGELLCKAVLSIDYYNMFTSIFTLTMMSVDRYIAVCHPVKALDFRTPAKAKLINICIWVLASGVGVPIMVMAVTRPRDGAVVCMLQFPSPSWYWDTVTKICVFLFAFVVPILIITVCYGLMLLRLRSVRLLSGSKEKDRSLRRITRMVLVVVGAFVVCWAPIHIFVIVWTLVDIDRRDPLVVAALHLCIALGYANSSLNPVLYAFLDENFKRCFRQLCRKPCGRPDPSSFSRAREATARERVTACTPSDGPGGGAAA
T2 sequence (P41145 whole entry): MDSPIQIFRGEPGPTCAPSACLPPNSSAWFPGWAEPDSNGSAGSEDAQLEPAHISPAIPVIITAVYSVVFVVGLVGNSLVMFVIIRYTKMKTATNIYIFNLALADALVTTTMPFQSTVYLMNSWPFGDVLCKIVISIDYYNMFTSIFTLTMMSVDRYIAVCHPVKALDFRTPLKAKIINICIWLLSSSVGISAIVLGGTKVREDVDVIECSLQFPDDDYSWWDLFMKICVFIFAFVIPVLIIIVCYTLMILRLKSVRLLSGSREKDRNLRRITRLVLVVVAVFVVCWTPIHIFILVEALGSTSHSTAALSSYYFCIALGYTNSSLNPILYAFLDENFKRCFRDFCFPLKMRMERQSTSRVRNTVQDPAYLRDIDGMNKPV
T3 sequence (P49327 whole entry): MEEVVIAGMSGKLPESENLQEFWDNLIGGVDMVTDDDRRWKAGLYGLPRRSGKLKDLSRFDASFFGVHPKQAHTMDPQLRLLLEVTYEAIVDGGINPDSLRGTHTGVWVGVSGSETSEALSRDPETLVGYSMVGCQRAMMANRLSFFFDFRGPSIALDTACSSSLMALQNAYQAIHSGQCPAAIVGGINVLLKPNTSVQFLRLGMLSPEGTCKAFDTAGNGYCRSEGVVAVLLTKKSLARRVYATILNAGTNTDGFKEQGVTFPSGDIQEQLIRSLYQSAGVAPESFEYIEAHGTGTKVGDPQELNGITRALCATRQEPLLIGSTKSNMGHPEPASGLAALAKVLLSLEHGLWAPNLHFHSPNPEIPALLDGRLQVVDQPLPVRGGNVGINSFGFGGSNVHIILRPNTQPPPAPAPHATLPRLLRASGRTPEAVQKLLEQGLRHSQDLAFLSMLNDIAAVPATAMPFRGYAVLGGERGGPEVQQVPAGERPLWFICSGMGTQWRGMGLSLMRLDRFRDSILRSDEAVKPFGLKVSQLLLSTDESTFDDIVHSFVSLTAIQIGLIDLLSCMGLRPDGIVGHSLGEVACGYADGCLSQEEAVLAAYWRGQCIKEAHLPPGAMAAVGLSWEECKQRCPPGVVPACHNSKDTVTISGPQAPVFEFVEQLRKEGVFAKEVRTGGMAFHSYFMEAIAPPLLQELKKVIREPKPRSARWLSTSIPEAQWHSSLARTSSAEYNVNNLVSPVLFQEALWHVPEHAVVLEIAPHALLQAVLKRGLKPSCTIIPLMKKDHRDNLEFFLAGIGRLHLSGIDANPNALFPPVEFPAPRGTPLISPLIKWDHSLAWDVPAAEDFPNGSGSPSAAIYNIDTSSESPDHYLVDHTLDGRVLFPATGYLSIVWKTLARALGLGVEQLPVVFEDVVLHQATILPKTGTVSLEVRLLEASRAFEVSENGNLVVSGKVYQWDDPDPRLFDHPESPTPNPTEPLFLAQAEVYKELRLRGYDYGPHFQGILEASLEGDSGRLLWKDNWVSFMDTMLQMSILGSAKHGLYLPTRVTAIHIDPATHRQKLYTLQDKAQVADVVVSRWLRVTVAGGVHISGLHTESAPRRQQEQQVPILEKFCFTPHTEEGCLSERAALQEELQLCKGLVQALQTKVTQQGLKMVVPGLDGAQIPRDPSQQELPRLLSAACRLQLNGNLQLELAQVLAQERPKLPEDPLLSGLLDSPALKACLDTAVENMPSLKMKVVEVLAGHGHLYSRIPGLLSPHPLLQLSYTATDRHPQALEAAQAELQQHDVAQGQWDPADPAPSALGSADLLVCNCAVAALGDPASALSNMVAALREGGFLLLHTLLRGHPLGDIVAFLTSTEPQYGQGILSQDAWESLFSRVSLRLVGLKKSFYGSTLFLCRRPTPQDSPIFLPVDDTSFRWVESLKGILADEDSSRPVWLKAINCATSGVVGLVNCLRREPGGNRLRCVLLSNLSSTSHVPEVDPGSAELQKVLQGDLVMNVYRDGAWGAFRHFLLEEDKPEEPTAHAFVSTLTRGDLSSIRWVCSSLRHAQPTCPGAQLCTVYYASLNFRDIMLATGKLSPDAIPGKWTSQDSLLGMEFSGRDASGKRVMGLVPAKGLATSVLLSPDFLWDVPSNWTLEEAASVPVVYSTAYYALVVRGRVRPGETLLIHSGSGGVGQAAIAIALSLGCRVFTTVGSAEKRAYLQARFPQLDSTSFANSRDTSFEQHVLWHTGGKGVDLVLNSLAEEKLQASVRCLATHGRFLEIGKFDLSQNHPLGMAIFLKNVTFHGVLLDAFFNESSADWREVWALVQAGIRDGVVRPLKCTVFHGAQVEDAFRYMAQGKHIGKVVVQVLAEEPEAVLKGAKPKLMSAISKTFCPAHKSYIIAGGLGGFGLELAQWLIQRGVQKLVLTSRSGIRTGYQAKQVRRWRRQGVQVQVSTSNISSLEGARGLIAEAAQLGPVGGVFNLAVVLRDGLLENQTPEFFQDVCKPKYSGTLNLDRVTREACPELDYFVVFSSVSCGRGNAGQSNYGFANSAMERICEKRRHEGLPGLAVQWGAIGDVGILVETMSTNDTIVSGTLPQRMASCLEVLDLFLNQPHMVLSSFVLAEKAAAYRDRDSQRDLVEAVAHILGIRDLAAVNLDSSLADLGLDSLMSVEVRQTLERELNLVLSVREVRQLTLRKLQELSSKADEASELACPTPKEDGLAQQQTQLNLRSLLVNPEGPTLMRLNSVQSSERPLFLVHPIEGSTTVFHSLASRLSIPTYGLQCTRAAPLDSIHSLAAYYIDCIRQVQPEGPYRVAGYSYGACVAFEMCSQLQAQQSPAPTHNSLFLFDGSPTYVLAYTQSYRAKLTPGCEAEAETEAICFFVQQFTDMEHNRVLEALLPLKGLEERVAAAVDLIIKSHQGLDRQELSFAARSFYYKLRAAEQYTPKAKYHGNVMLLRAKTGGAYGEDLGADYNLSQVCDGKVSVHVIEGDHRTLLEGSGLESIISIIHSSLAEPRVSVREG
Sequence of Potassium voltage-gated channel subfamily KQT member 2 (O88943 whole entry): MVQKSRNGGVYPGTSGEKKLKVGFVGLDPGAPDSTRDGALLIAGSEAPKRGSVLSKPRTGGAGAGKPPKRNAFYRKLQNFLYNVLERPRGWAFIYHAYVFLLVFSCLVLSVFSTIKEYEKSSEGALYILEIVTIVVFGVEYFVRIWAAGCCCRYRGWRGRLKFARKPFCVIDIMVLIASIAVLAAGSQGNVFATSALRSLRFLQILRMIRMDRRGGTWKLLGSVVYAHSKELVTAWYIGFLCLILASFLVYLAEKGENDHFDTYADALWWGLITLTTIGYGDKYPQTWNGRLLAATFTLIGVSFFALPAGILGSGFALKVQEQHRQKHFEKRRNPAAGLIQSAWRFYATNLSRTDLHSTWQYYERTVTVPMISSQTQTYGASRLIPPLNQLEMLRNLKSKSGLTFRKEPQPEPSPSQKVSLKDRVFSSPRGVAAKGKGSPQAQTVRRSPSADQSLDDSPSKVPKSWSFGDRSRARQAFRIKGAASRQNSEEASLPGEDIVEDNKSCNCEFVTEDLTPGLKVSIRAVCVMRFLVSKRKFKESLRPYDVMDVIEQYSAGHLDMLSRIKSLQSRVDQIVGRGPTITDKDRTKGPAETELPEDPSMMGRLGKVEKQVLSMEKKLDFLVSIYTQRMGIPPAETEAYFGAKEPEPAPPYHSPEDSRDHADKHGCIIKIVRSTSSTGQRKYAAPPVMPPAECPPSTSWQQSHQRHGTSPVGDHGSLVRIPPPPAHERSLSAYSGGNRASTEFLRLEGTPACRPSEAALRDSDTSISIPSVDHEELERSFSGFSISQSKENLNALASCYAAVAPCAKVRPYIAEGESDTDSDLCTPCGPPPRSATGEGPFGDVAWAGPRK
Sequence of Cytochrome P450 2C19 (P33261 whole entry): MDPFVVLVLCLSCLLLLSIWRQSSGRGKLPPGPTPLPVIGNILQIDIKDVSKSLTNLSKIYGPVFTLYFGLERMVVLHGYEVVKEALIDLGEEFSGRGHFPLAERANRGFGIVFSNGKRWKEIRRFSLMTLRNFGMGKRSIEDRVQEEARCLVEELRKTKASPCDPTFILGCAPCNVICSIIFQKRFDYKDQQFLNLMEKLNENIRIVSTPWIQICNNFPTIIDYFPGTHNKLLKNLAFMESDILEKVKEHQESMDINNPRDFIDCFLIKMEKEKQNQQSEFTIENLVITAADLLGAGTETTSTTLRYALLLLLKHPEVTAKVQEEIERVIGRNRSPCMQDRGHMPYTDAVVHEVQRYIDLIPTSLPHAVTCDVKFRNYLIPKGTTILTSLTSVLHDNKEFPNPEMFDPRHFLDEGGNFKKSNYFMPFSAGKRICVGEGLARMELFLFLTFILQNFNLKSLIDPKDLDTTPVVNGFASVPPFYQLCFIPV
Sequence of Beta Lactamase (Q932Y6 whole entry): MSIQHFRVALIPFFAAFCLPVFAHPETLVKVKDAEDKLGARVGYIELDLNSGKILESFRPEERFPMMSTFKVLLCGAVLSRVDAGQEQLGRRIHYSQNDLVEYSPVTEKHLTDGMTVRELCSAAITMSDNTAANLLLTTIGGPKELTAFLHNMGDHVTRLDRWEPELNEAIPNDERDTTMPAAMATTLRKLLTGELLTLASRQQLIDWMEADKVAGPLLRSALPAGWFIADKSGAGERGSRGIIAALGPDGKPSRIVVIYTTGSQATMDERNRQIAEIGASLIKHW

CCc1ccc(NC(=O)C2CC3CCC2C3)cc1 (centres undefined)
active: EC50 [1] 0.92 µM

COC(=O)N/N=C/c1ccc([N+](=O)[O-])o1
> 60 µM (not active): EC50 [2]
active: EC50 [3] 0.123 µM | EC50 [5] 0.469 µM | EC50 [6] 0.123 µM
> 195 µM (not active): EC50 [4]

O=C(NCCCn1ccnc1)c1cccc(S(=O)(=O)N2CCCCCC2)c1
active: AC50 [7] 18.9 µM | AC50 [8] 27.2 µM

CCCC(=O)OCCNc1cc(Sc2nccn2C)c2nonc2c1[N+](=O)[O-]
30.5 µM: IC50 [29]
inactive: EC50 [11] > 32 µM | IC50 [14] > 32 µM | EC50 [16] > 31.5 µM | EC50 [31] > 32 µM
active: AC50 [9] 12.2 µM | EC50 [10] 4.63 µM | EC50 [12] 6.43 µM | CC50 [13] 16.6 µM | IC50 [15] 5.47 µM | IC50 [17] 3.21 µM | CC50 [18] 13.3 µM | IC50 [19] 2.57 µM | EC50 [20] 2.82 µM | IC50 [21] 136 µM | AC50 [22] 1.14 µM | IC50 [23] 8.31 µM | IC50 [24] 6.13 µM | IC50 [25] 5.11 µM | EC50 [26] 1.27 µM | AC50 [27] 7.22 µM | AC50 [28] 15.7 µM | CC50 [30] 19.2 µM

CN(C)C1C(=O)C(C(N)=O)=C(O)C2(O)C(O)=C3C(=O)c4c(O)cccc4C(C)(O)C3C(O)C12 (centres undefined)
inconclusive: EC50 [35] 29.9 µM
active: EC50 [32] 65.8 µM | AC50 [33] < 0.3 µM | AC50 [34] 14.9 µM | AC50 [36] 54.2 µM

O=C(O)CNC(=O)c1ccc([As](=O)(O)O)cc1
inactive: AC50 [37] | AC50 [38] | AC50 [39]

Reference: ChEMBL document CHEMBL1201862, “PubChem BioAssay data set” (2004)
